{
  "source": "paper PMC9241302",
  "about": "“Identification of 2-(4-N,N-Dimethylaminophenyl)-5-methyl-1-phenethyl-1H-benzimidazole targeting HIV-1 CA capsid protein and inhibiting HIV-1 replication in cellulo” (BMC Pharmacology & Toxicology, 2022)",
  "key": {"[1]": {"system": "HIV-1 reverse transcription (pol viral DNA)", "test": "qPCR quantification of reverse transcribed viral DNA in U87-CD4-CCR5 cells", "assay_type": "cell-based", "details": "10 µM, cells preincubated, DNA extracted 48 h post-infection", "quoted_text": "U87-CD4-CCR5 cells were plated in a 24-wells plate at 1.25 × 10^5 cells per well. […] Total DNA was extracted 48 h post-infection using the AllPrep DNA/RNA Mini Kit (Qiagen, Venlo, Netherlands). […] The following program was used in the LightCycler 480 Real-Time PCR System (Roche, Basel, Switzerland): pre-incubation: 95 °C for 3 min, pre-amplification: 2 cycles of 95 °C for 15 s and 49 °C for 15 s, amplification: 40 cycles of 95 °C for 10 s, 58 °C for 20 s, 72 °C for 30 s, melting curve stage: 95 °C for 5 s, 55 °C for 1 min and then 97 °C with acquisition every 10 °C, cooling stage: 40 °C for 10 s. Serial dilution of the 8E5 cell line which contains 1 copy of HIV-1 proviral DNA per cell was used as a standard curve for viral RT products [46]. […] Results were calculated as the number of copies of Pol per copy of β-actin. Statistical analysis was performed using an unpaired, two-tailed, Mann–Whitney test with GraphPad Prism 7.0 software. Tests were performed in quadruplicate, in two independent experiments."}, "HIV-1 NL4-3 Ba-L": {"system": "HIV-1 NL4-3 Ba-L", "test": "microbe, parasite or virus in culture", "assay_type": "cell-based", "details": "for inhibition of HIV-1 replication (in words): U87-CD4-CCR5 cells, serial 1:2 dilutions from 10 µM", "method": "Compounds were first dissolved in DMSO to reach a concentration of 20 mM. They were further diluted to a 200 µM working stock and then further diluted to reach a starting concentration of 10 µM in the culture plate. U87-CD4-CCR5 cells were seeded in quadruplicate at 4000 cells/well in a final volume of 100 µL. The next day, 24 µL of the compound was added in serial 1:2 dilutions to the cells. Two hours later, 25 µL of infectious virus (NL4-3 Ba-L) were added to the cells with a TCID50 of 250. AZT at 10 µM was included as an inhibition control. The medium was replenished in the presence of compounds once every 3 to 4 days. The supernatant was collected every 3–4 days and analyzed for virus production by an in-house p24 capture ELISA. IC50 was calculated using “Quest Graph™ IC50 Calculator” (AAT Bioquest, Inc., https://www.aatbio.com/tools/ic50-calculator). Cytotoxicity of the compound was tested on U87-CD4-CCR5 cells in parallel by MTT assay (at the same protocol as in Sect. 3.5 but after 11 days of incubation))[39]."}, "[2]": {"system": "human embryonic kidney cells", "design": "method as in PMID 25512408, PMID 30393786, PMID 24749923, PMID 26492824", "details": "read-out: EC50 in human embryonic kidney cells (cytotoxicity); cited from earlier work"}, "human TZM-bl": {"system": "human TZM-bl", "details": "cited from earlier work"}, "HIV-1": {"system": "HIV-1", "details": "Table 1, PF74, literature value; read-out: IC50 in U87; cited from earlier work"}, "human MT4": {"system": "human MT4", "details": "cited from earlier work"}, "U87 cells": {"system": "U87 cells", "details": "cited from earlier work"}, "HIV-1 CA [3]": {"biological_target": "T1, HIV-1 CA (Human immunodeficiency virus type 1 group M subtype B, UniProt P12493)", "design": "the capsid protein (CA) of the Gag polyprotein; made in house; host or cells: Escherichia coli BL21(DE3) pLysS; method as in PMID 30393786", "details": "PF74 data from the literature, same condition, cited from earlier work"}, "HIV-1 CA [4]": {"biological_target": "HIV-1 CA", "details": "Table 1, PF74, literature value; read-out: Binding affinity; cited from earlier work"}, "[5]": {"details": "human, microsomes; cited from earlier work"}, "mice": {"system": "mice", "details": "cited from earlier work"}, "[6]": {"test": "Cytotoxicity in murine macrophages (MTT)", "assay_type": "cell-based", "details": "mouse, J774.1 murine macrophages; Fig. 2 toxicology summary", "method": "(§1) TZM-bl cells, U87-CD4-CCR5, murine macrophages (J774.1), and THP-1 monocytes (ATCC®TIB-202™) were grown following ATCC recommendations. Cells were seeded in a 96-well plate (10^4 cells in 200 µL culture medium) and incubated at 37 °C in a 5% CO2 atmosphere for 48 h, to allow cell adhesion before drug testing. For stimulation (THP-1 monocytes), cells were incubated with 100 nM of phorbol 12-myristate 13-acetate (PMA) for 48 h. […] A vehicle for control (0.4% DMSO) and negative wells (cells in medium) was used in each test. […] After removing the medium, formazan crystals were dissolved in 180 µL of DMSO and 20µL of MTT buffer (0.1 M glycine, 0.1 M NaCl, 0.5 mM EDTA, pH 10.5), and the absorbance at 560 nm was measured. […] Tests were performed in triplicate, in two independent experiments."}, "[7]": {"details": "cited from earlier work"}, "HIV-1 CA [8]": {"biological_target": "T1, HIV-1 CA", "test": "HIV-1 CA assembly inhibition assay (absorbance at 340 nm)", "assay_type": "biochemical", "design": "the capsid protein (CA) of the Gag polyprotein; made in house; host or cells: Escherichia coli BL21(DE3) pLysS", "details": "compounds at 25 or 50 µM, CA 5 mg/mL, 30 min", "method": "The CA assembly assay was performed in a final volume of 70 µL in 384-well plates, with a final concentration of 5 mg/mL of purified recombinant HIV-1 CA in Phosphate/NaCl Buffer (NaH2PO4/Na2HPO4 50 mM, NaCl 100 mM, pH 7.4), as described for FIV CA [27, 31]. Absorbance was measured at 340 nm every 30 s in a multiplate reader VarioskanTM Flash Multimode Reader (Thermo Scientific, MA, US) at 37 °C for 30 min. The compounds were tested at a fixed initial dose of 25 or 50 µM (at 0.5% DMSO [v/v]) by adding 1 µL of the concentrated ligand to the well before starting the measurement. The controls were CA at 5 mg/mL in only 0.5% DMSO [v/v] and CA without DMSO. The criteria to select active compounds were the observation of at least 50% of assembly inhibition at these doses, based on the reduction of the OD value at 340 nm at the plateau value compared to the controls."}, "HIV-1 CA [9]": {"biological_target": "T1, HIV-1 CA", "test": "Binding to HIV-1 CA by isothermal microcalorimetry (ITC)", "design": "the capsid protein (CA) of the Gag polyprotein", "details": "200 µM", "method": "The affinity of compound 696 for HIV-1 CA in vitro was measured by microscale thermophoresis (MST) as described previously for FIV CA [31]. Due to its intrinsic autofluorescence interfering with MST, the binding of compound 314 to CA was measured using isothermal microcalorimetry (ITC) with a Microcal iTC200 calorimeter (Malvern Instruments, Worcestershire, UK). The calorimeter cell contained 200 µL of recombinant HIV-1 CA (kind gifted by Drs Verrier and Coiffier) at 0.78 mg/mL in phosphate buffer (NaH2PO4/Na2HPO4) 50 mM pH 7.5, NaCl 100 mM, 1% DMSO [v/v]. Compound 314 at 200 µM was then injected sequentially into the calorimeter cell (injection #1: 1 µL, injections #2-#20: 2 µL) at 120 s intervals. Data were analyzed using the OriginLab8.5® software according to the manufacturer’s instructions."}, "[10]": {"design": "method as in PMID 25512408, PMID 30393786, PMID 24749923, PMID 26492824", "details": "cited from earlier work"}, "[11]": {"test": "Solubility observed in the assays", "assay_type": "physicochemical", "details": "for solubility at high concentrations (in words): HIV-1 replication assay"}, "[12]": {"system": "murine macrophages (J774.1)", "test": "Cytotoxicity in murine macrophages (MTT)", "assay_type": "cell-based", "details": "50 µM, 24 h", "method": "as §1"}},
  "note": "“Also recorded” adds a separate entry of the source. Like-named read-outs stand apart in the source and are kept apart here.",
  "data": [
    {"compound": "Cc1cn([C@H]2C[C@H](N=[N+]=[N-])[C@@H](CO)O2)c(=O)[nH]c1=O", "note": "[AZT, Zidovudine, reference compound]", "values": [
      {"measurement": "inhibition of HIV-1 reverse transcription (pol viral DNA by qPCR)", "setting": "[1]", "value": "efficient inhibition"},
      {"measurement": "p24 production", "setting": "HIV-1 NL4-3 Ba-L; AZT 10 µM inhibition control", "value": "No p24 production was detected"}
    ]},
    {"compound": "Cc1[nH]c2ccccc2c1CC(=O)NC(Cc1ccccc1)C(=O)N(C)c1ccccc1", "note": "(centres unmarked) [PF74]", "values": [
      {"measurement": "EC50", "setting": "[2]", "value": "> 50", "unit": "µM"},
      {"measurement": "EC50", "setting": "human TZM-bl", "value": 47, "unit": "µM"},
      {"measurement": "EC50", "setting": "human TZM-bl; read-out: EC50 in TZM-bl cells (μM) 48hs, Table 1, PF74, 48hs, literature value", "value": 23.5, "unit": "µM"},
      {"measurement": "IC50", "setting": "HIV-1", "value": 0.06, "unit": "µM"},
      {"measurement": "EC50", "setting": "human MT4", "value": 70, "unit": "µM"},
      {"measurement": "EC50", "setting": "U87 cells", "value": 75, "unit": "µM"},
      {"measurement": "Effect in p24 multimerization in vitro", "setting": "HIV-1 CA [3]", "value": "accelerated"},
      {"measurement": "Effect in p24 multimerization in vitro", "setting": "HIV-1 CA [3]; listed as C00001", "value": "acceleration"},
      {"measurement": "Kd", "setting": "HIV-1 CA [4]", "value": "0.06 to 0.09", "unit": "µM"},
      {"measurement": "Metabolic stability, half-life (t1/2)", "setting": "[5]", "value": "Human liver microsomes, the half-life (t1/2) less than 1 min"}
    ]},
    {"compound": "C=CCn1c(-c2ccc3ccccc3c2)cs\\c1=N/N=C/C=C/c1ccco1", "note": "[compound 305]", "values": [
      {"measurement": "LD50 in mice (oral acute toxicity)", "setting": "mice", "value": 413, "unit": "mg/kg"},
      {"measurement": "EC50", "setting": "[6]", "value": 50, "unit": "µM"},
      {"measurement": "AMES Test (mutagenicity)", "setting": "[7]", "value": "non mutagenic"},
      {"measurement": "interference with the assembly of HIV-1 CA in vitro", "setting": "HIV-1 CA [8]", "value": "interference with the assembly"}
    ]},
    {"compound": "C=CCn1c(C(=O)N2CCN(C/C=C/c3ccccc3)CC2)cs/c1=N/N=C\\C=C\\c1ccco1", "note": "[compound 314]", "values": [
      {"measurement": "specific binding for HIV-1 CA", "setting": "HIV-1 CA [9]", "value": "no specific binding"},
      {"measurement": "Oral Rat LD50", "setting": "mice; Table S1, 314, not marked as TEST-calculated, Fig. 2 gives mice", "value": ">2000", "unit": "mg/kg"},
      {"measurement": "LD50 in mice (oral acute toxicity)", "setting": "mice", "value": 2000, "unit": "mg/kg"},
      {"measurement": "EC50", "setting": "[6]", "value": 40, "unit": "µM"},
      {"measurement": "AMES Test (mutagenicity)", "setting": "[7]", "value": "non mutagenic; also recorded: no mutagenicity"},
      {"measurement": "genotoxicity by Micronucleus Test", "setting": "[10]", "value": "Not genotoxic; also recorded: no genotoxicity"},
      {"measurement": "solubility", "setting": "[11]; pH 7.4, CA assembly assay, read-out: insolubility at concentrations", "value": "> 10", "unit": "µM"},
      {"measurement": "inhibition of HIV-1 replication (in words)", "setting": "HIV-1 NL4-3 Ba-L", "value": "clear dose–response inhibition; also recorded: inhibition only at 10 µM"}
    ]},
    {"compound": "CCOC(=O)c1n(Cc2ccc(N(C)C)cc2)c2ccc([N+](=O)[O-])cc2[n+]1[O-]", "note": "[compound 553]", "values": [
      {"measurement": "unspecific cytotoxicity in murine macrophages", "setting": "[12]", "value": 100, "unit": "%"},
      {"measurement": "EC50", "setting": "[6]", "value": "< 50", "unit": "µM"},
      {"measurement": "interference with the assembly of HIV-1 CA in vitro", "setting": "HIV-1 CA [8]", "value": "interference with the assembly"}
    ]},
    {"compound": "CC(/C=N/N1CCSCC1)=C\\c1ccco1", "note": "[compound 878]", "values": [
      {"measurement": "EC50", "setting": "[6]", "value": 50, "unit": "µM"},
      {"measurement": "solubility at high concentrations (in words)", "setting": "[11]", "value": "solubility problems"},
      {"measurement": "interference with the assembly of HIV-1 CA in vitro", "setting": "HIV-1 CA [8]", "value": "interference with the assembly"},
      {"measurement": "inhibition of HIV-1 replication (in words)", "setting": "HIV-1 NL4-3 Ba-L", "value": "trend towards inhibition"}
    ]},
    {"compound": "C=CCn1c(C(=O)O)cs/c1=N\\N=C\\c1ccc(/C=N/N=c2\\scc(C(=O)O)n2CC=C)cc1", "note": "[compound 1310]", "values": [
      {"measurement": "EC50", "setting": "[6]", "value": "> 50", "unit": "µM"},
      {"measurement": "solubility at high concentrations (in words)", "setting": "[11]", "value": "solubility problems"},
      {"measurement": "interference with the assembly of HIV-1 CA in vitro", "setting": "HIV-1 CA [8]", "value": "interference with the assembly"},
      {"measurement": "inhibition of HIV-1 replication (in words)", "setting": "HIV-1 NL4-3 Ba-L", "value": "trend towards inhibition"}
    ]}
  ]
}
